Measured values published in patent publication US6383276B1, “Azomethine compound and oily magenta ink” (Fuji Photo Film Co., Ltd., priority 1999, dated 2002).

How the values were obtained:
[1] = Absorption maximum and molar extinction coefficient of ethyl acetate solutions; type: physicochemical; conditions: ethyl acetate solution
Method: With respect to each of the ethyl acetate-base magenta inks [ethyl acetate solutions of the compounds (Ia-1), (Ia-6), (Ia-12), (Ia-13), (Ia-14) and (Ia-15)] prepared in Example 4, the absorption maximum (λmax) and molar extinction coefficient (ε) were measured.
With respect to each of the ethyl acetate-base magenta inks [ethyl acetate solutions of the compounds (X-1), (X-2), (X-3) and (X-4)] prepared in Comparison Example 1, the absorption maximum (λmax) was measured.

[2] = Measurement of solubility in ethyl acetate (Example 6, Comparison Example 1); type: physicochemical; conditions: 25° C. for 20 hours, filtered through 0.2 μm filter, ink concentrated
Method: With respect to each of the azomethine compounds (Ia-6), (Ia-12) and (Ia-14), 600 mg of the compound was placed in a lidded test tube. After 2 ml of ethyl acetate was added, the mixture was treated with an ultrasonic cleaner for 30 minutes. The resultant liquid was heated and stirred at 65° C. for 1 hour, and then cooled to room temperature. After leaving the test tube in a constant temperature bath at 25° C. for 20 hours, solid particles were filtered off with a micro filter having the pore size of 0.2 μm to prepare an oily magenta ink.
Each prepared ink was concentrated to measure the solubility, but solid (crystallite) was not deposited.
With respect to each of the following azomethine compounds (X-1), (X-2), (X-3) and (X-4), 30 mg of the compound was placed in a lidded test tube. After 2 ml of ethyl acetate was added, the mixture was treated with an ultrasonic cleaner for 30 minutes. The resultant liquid was heated and stirred at 65° C. for 1 hour, and then cooled to room temperature. After leaving the test tube in a constant temperature bath at 25° C. for 20 hours, solid particles were filtered off with a micro filter having the pore size of 0.2 μm to prepare an oily magenta ink. [drawing 13]
Each prepared ink was concentrated to measure the solubility.

Row | Absorption maximum (λmax) ([1]; Table 1) | Molar extinction coefficient (ε) ([1]; Table 1) | Solubility [2] | Absorption maximum (λmax) ([1]; Table 2) | SMILES
1 | 532 nm | 4.9 × 10^4 | – | – | CCCCCCC(Oc1ccc(C(C)(C)CC)cc1C(C)(C)CC)C(=O)Nc1ccc(-c2nc3n(n2)N=C(C(C)(C)C)C3=Nc2ccc(N(CCO)CCC#N)cc2C)cc1 (stereo not drawn) [Ia-15]
2 | 522 nm | 5.2 × 10^4 | 30.2 wt. % or more | 522 nm | CCCCCCC(Oc1ccc(C(C)(C)CC)cc1C(C)(C)CC)C(=O)NCC(C)c1nc2n(n1)N=C(C)C2=Nc1ccc(N(CCO)CCC#N)cc1C (stereo not drawn) [Ia-6]
3 | – | – | 0.18 wt. % | 504 nm | COc1ccc(OCCN(CCC#N)c2ccc(N=C3C(C)=Nn4nc(C(C)CN5C(=O)c6ccccc6C5=O)nc43)cc2)cc1 (stereo not drawn) [X-1, reference compound]
4 | – | – | 0.63 wt. % | 536 nm | CCN(CC)c1ccc(N=C2C(C)=Nn3nc(C(C)CNC(=O)CCCOc4ccc(OC)cc4)nc32)c(C)c1 (stereo not drawn) [X-4, reference compound]
5 | 512 nm | 5.0 × 10^4 | – | – | CCCCCCC(Oc1ccc(C(C)(C)CC)cc1C(C)(C)CC)C(=O)NCC(C)c1nc2n(n1)N=C(C)C2=Nc1ccc(N(CC)CCC#N)cc1 (stereo not drawn) [Ia-1]
6 | – | – | 1.72 wt. % | 511 nm | CCN(CCC#N)c1ccc(N=C2C(C)=Nn3nc(C(C)CNC(=O)CCCOc4ccc(OC)cc4)nc32)cc1 (stereo not drawn) [X-3, reference compound]
7 | 519 nm | 4.8 × 10^4 | 30.1 wt. % or more | 519 nm | CCCCCCCCCCCCCCOC(=O)CCC(=O)Nc1ccc(-c2nc3n(n2)N=C(C(C)(C)C)C3=Nc2ccc(N(CCC#N)CCCC)cc2)cc1 [Ia-12]
8 | 520 nm | 4.8 × 10^4 | 30.1 wt. % or more | 520 nm | CCCCCCC(Oc1ccc(C(C)(C)CC)cc1C(C)(C)CC)C(=O)Nc1ccc(-c2nc3n(n2)N=C(C(C)(C)C)C3=Nc2ccc(N(CCC#N)CCCC)cc2)cc1 (stereo not drawn) [Ia-14]
9 | 517 nm | 4.6 × 10^4 | – | – | CCCCCCC(Oc1ccc(C(C)(C)CC)cc1C(C)(C)CC)C(=O)Nc1ccc(-c2nc3n(n2)N=C(C(C)(C)C)C3=Nc2ccc(N(CC)CCC#N)cc2)cc1 (stereo not drawn) [Ia-13]
